Laboratory results published in patent US20180065917A1, “IMMUNE CHECKPOINT INHIBITORS, COMPOSITIONS AND METHODS THEREOF” (Polaris Pharmaceuticals, Inc., priority 2016, published 2018).
Counter-ions that a name gives are not always drawn.

Target: T1, PD-L1/PD-1 complex formation (Homo sapiens, UniProt Q9NZQ7)
T1 construct: purchased BPS Bioscience
Assay: PD-L1/PD-1 Interaction Assay (ELISA platform)
Format: binding
Settings: human PD-1-Fc coated plates, PD-L1-Fc-biotin 0.1 μg/ml, compounds pre-incubated 2 hours
Experimental: The ability of compounds to block PD-L1/PD-1 complex formation was evaluated using biochemical interaction assay based on the ELISA platform.
EIA/RIA high binding 96-well plates (Costar) were coated with human PD-1-Fc protein diluted in PBS to 0.5 μg/ml overnight at 4° C. The PD-1-Fc coated plates were washed in PBST and blocked in blocking buffer (2% BSA in PBST). Serially diluted compounds were pre-incubated with PD-L1-Fc-biotin (0.1 μg/ml final) for 2 hours on a shaker at room temperature. The PD-1-Fc coated plates were washed with PBST and solutions containing PD-L1 and compounds were added to the plates. The PD-1-Fc coated plates were incubated with PD-L1 and compound solution for 2 hours on a shaker at room temperature. After the incubation unbound PD-L1 was washed away with PBST and plates were incubated with the blocking buffer for 10 minutes. The bound PD-L1-Fc-biotin was detected with streptavidin-HRP and TMB substrate. The plates were read at OD450 nm in a plate reader (i3 from Molecular Devices) and percentages of inhibition of PD-L1/PD-1 complex formation were calculated.
PD-1-Fc protein was made at Polaris and PD-L1-Fc was purchased from BPS Bioscience.

T1 sequence (Q9NZQ7 19-239 limits assumed, one chain of several): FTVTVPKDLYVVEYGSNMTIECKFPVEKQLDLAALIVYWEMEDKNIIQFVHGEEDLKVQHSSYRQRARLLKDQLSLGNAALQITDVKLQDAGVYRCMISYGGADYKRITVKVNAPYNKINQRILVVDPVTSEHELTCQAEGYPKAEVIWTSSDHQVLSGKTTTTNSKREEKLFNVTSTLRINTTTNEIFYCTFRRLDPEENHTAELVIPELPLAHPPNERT

| SMILES | IC50 [nM] |
| --- | --- |
| Cc1c(COc2ccc(CNC(C)(C)C(=O)O)cc2Br)cccc1-c1cccc(COc2ccc(CNC(C)(C)C(=O)O)cc2Br)c1C [Example 14, 2,2′-((((((2,2′-Dimethyl-[1,1′-biphenyl]-3,3′-diyl)bis(methylene))bis(oxy))bis(3-bromo-4,1-phenylene))bis(methylene))bis(azanediyl))bis(2-methylpropanoic acid) di-trifluoroacetic acid salt] | 0.1 to 10 |
| Cc1c(COc2ccc(CN3CCCC[C@H]3C(N)=O)cc2Br)cccc1-c1cccc(COc2ccc(CN3CCCC[C@H]3C(N)=O)cc2Br)c1C [Example 23, (2S,2′S)-1,1′-(((((2,2′-Dimethyl-[1,1′-biphenyl]-3,3′-diyl)bis(methylene))bis(oxy))bis(3-bromo-4,1-phenylene))bis(methylene))bis(piperidine-2-carboxamide)] | 1010 to 30000 |
| Cc1c(COc2ccc(CN[C@H](C)C(=O)O)cc2Br)cccc1-c1cccc(COc2ccc(CN[C@H](C)C(=O)O)cc2Br)c1C [Example 16, (2R,2′R)-2,2′-((((((2,2′-Dimethyl-[1,1′-biphenyl]-3,3′-diyl)bis(methylene))bis(oxy))bis(3-bromo-4,1-phenylene))bis(methylene))bis(azanediyl))dipropionic acid di-trifluoroacetic acid salt] | 11 to 100 |
| Cc1c(COc2ccc(CN[C@@H](C(=O)O)[C@H](C)O)cc2Br)cccc1-c1cccc(COc2ccc(CN[C@@H](C(=O)O)[C@H](C)O)cc2Br)c1C [Example 18, (2R,2′R,3S,3′S)-2,2′-((((((2,2′-Dimethyl-[1,1′-biphenyl]-3,3′-diyl)bis(methylene))bis(oxy))bis(3-bromo-4,1-phenylene))bis(methylene))bis(azanediyl))bis(3-hydroxybutanoic acid) di-trifluoroacetic acid salt] | 0.1 to 10 |
| Cc1c(COc2ccc(CNC(C)(CO)CO)cc2Br)cccc1-c1cccc(COc2ccc(CNC(C)(CO)CO)cc2Br)c1C [Example 33, 2,2′-((((((2,2′-Dimethyl-[1,1′-biphenyl]-3,3′-diyl)bis(methylene))bis(oxy))bis(3-bromo-4,1-phenylene))bis(methylene))bis(azanediyl))bis(2-methylpropane-1,3-diol) di-trifluoroacetic acid salt] | 0.1 to 10 |
| Cc1c(COc2ccc(CN3CCCC[C@H]3C(=O)NCCO)cc2Br)cccc1-c1cccc(COc2ccc(CN3CCCC[C@H]3C(=O)NCCO)cc2Br)c1C [Example 24, (2S,2′S)-1,1′-(((((2,2′-Dimethyl-[1,1′-biphenyl]-3,3′-diyl)bis(methylene))bis(oxy))bis(3-bromo-4,1-phenylene))bis(methylene))bis(N-(2-hydroxyethyl)piperidine-2-carboxamide)] | 110 to 1000 |
| Cc1c(COc2ccc(CN(CC(=O)O)CC(=O)O)cc2Br)cccc1-c1cccc(COc2ccc(CN(CC(=O)O)CC(=O)O)cc2Br)c1C [Example 30, 2,2′,2″,2′″-((((((2,2′-Dimethyl-[1,1′-biphenyl]-3,3′-diyl)bis(methylene))bis(oxy))bis(3-bromo-4,1-phenylene))bis(methylene))bis(azanetriyl))tetraacetic acid di-trifluoroacetic acid salt] | 110 to 1000 |
| Cc1c(COc2ccc(CNC(CO)CO)cc2Br)cccc1-c1cccc(COc2ccc(CNC(CO)CO)cc2Br)c1C [Example 32, 2,2′-((((((2,2′-Dimethyl-[1,1′-biphenyl]-3,3′-diyl)bis(methylene))bis(oxy))bis(3-bromo-4,1-phenylene))bis(methylene))bis(azanediyl))bis(propane-1,3-diol) di-trifluoroacetic acid salt] | 0.1 to 10 |
| Cc1c(COc2ccc(CN3CCCC[C@H]3C(=O)O)cc2C(F)F)cccc1-c1cccc(COc2ccc(CN3CCCC[C@H]3C(=O)O)cc2C(F)F)c1C [Example 29, (2S,2′S)-1,1′-(((((2,2′-Dimethyl-[1,1′-biphenyl]-3,3′-diyl)bis(methylene))bis(oxy))bis(3-(difluoromethyl)-4,1-phenylene))bis(methylene))bis(piperidine-2-carboxylic acid) di-trifluoroacetic acid salt] | 0.1 to 10 |
| Cc1c(COc2ccc(CNCCO)cc2Br)cccc1-c1cccc(COc2ccc(CNCCO)cc2Br)c1C [Example 5, 2,2′-((((((2,2′-Dimethyl-[1,1′-biphenyl]-3,3′-diyl)bis(methylene))bis(oxy))bis(3-bromo-4,1-phenylene))bis(methylene))bis(azanediyl))bis(ethan-1-ol) di-trifluoroacetic acid salt] | 0.1 to 10 |
| Cc1c(COc2ccc(CN3CCCC[C@@H]3C(=O)O)cc2Br)cccc1-c1cccc(COc2ccc(CN3CCCC[C@@H]3C(=O)O)cc2Br)c1C [Example 2, (2R,2′R)-1,1′-(((((2,2′-dimethyl-[1,1′-biphenyl]-3,3′-diyl)bis(methylene))bis(oxy))bis(3-bromo-4,1-phenylene))bis(methylene))bis(piperidine-2-carboxylic acid)] | 11 to 100 |
| CCc1cc(CN2CCCC[C@H]2C(=O)O)ccc1OCc1cccc(-c2cccc(COc3ccc(CN4CCCC[C@H]4C(=O)O)cc3CC)c2C)c1C [Example 27, (2S,2′S)-1,1′-(((((2,2′-Dimethyl-[1,1′-biphenyl]-3,3′-diyl)bis(methylene))bis(oxy))bis(3-ethyl-4,1-phenylene))bis(methylene))bis(piperidine-2-carboxylic acid) di-trifluoroacetic acid salt] | 110 to 1000 |
| COc1nc(OCc2cccc(-c3cccc(COc4ccc(CNCCNC(C)=O)c(OC)n4)c3C)c2C)ccc1CNCCNC(C)=O [Example 3, N,N′-(((((((2,2′-Dimethyl-[1,1′-biphenyl]-3,3′-diyl)bis(methylene))bis(oxy))bis(2-methoxypyridine-6,3-diyl))bis(methylene))bis(azanediyl))bis(ethane-2,1-diyl))diacetamide] | 11 to 100 |
| Cc1c(COc2ccc(CN(CCO)CCO)cc2Br)cccc1-c1cccc(COc2ccc(CN(CCO)CCO)cc2Br)c1C [Example 31, 2,2′,2″,2′″-((((((2,2′-Dimethyl-[1,1′-biphenyl]-3,3′-diyl)bis(methylene))bis(oxy))bis(3-bromo-4,1-phenylene))bis(methylene))bis(azanetriyl))tetrakis(ethan-1-ol) di-trifluoroacetic acid salt] | 11 to 100 |
| Cc1c(COc2ccc(CN[C@H](CO)C(=O)O)cc2Br)cccc1-c1cccc(COc2ccc(CN[C@H](CO)C(=O)O)cc2Br)c1C [Example 17, (2R,2′R)-2,2′-((((((2,2′-Dimethyl-[1,1′-biphenyl]-3,3′-diyl)bis(methylene))bis(oxy))bis(3-bromo-4,1-phenylene))bis(methylene))bis(azanediyl))bis(3-hydroxypropanoic acid) di-trifluoroacetic acid salt] | 0.1 to 10 |
| Cc1c(COc2ccc(CN3CCCC[C@H]3C(=O)NCCN(C)C)cc2Br)cccc1-c1cccc(COc2ccc(CN3CCCC[C@H]3C(=O)NCCN(C)C)cc2Br)c1C [Example 25, (2S,2′S)-1,1′-(((((2,2′-Dimethyl-[1,1′-biphenyl]-3,3′-diyl)bis(methylene))bis(oxy))bis(3-bromo-4,1-phenylene))bis(methylene))bis(N-(2-(dimethylamino)ethyl)piperidine-2-carboxamide)] | 1010 to 30000 |
| C#Cc1cc(CN2CCCC[C@H]2C(=O)O)ccc1OCc1cccc(-c2cccc(COc3ccc(CN4CCCC[C@H]4C(=O)O)cc3C#C)c2C)c1C [Example 26, (2S,2′S)-1,1′-(((((2,2′-Dimethyl-[1,1′-biphenyl]-3,3′-diyl)bis(methylene))bis(oxy))bis(3-ethynyl-4,1-phenylene))bis(methylene))bis(piperidine-2-carboxylic acid) di-trifluoroacetic acid salt] | 11 to 100 |
| Cc1c(COc2ccc(CN[C@@H](C)C(=O)O)cc2Br)cccc1-c1cccc(COc2ccc(CN[C@@H](C)C(=O)O)cc2Br)c1C [Example 15, (2S,2′S)-2,2′-((((((2,2′-Dimethyl-[1,1′-biphenyl]-3,3′-diyl)bis(methylene))bis(oxy))bis(3-bromo-4,1-phenylene))bis(methylene))bis(azanediyl))dipropionic acid di-trifluoroacetic acid salt] | 0.1 to 10 |
| COC(=O)[C@@H]1CCCCN1Cc1ccc(OCc2cccc(-c3cccc(COc4ccc(CN5CCCC[C@H]5C(=O)OC)cc4Br)c3C)c2C)c(Br)c1 [Example 4, Dimethyl 1,1′-(((((2,2′-dimethyl-[1,1′-biphenyl]-3,3′-diyl)bis(methylene))bis(oxy))bis(3-bromo-4,1-phenylene))bis(methylene))(2S,2′S)-bis(piperidine-2-carboxylate)] | > 30000 |
| CSc1cc(CN2CCCC[C@H]2C(=O)O)ccc1OCc1cccc(-c2cccc(COc3ccc(CN4CCCC[C@H]4C(=O)O)cc3SC)c2C)c1C [Example 28, (2S,2′S)-1,1′-(((((2,2′-Dimethyl-[1,1′-biphenyl]-3,3′-diyl)bis(methylene))bis(oxy))bis(3-(methylthio)-4,1-phenylene))bis(methylene))bis(piperidine-2-carboxylic acid) di-trifluoroacetic acid salt] | 110 to 1000 |
